Test results published in ChEMBL document CHEMBL4368904 (J Med Chem, 2019).

How the values were obtained:
Histamine H1 receptor = Histamine H1 receptor (Homo sapiens, UniProt P35367); test: Inhibition of histamine H1 receptor (unknown origin)
[1] = biological target: Sigma intracellular receptor 2 (Homo sapiens, UniProt Q5BJF2); test: Inhibition of sigma receptor 2 (unknown origin)
Mus musculus [2] = test: Induction of hypothermia in C57BL/6J mouse assessed as body temperature at 1 mg/kg, ip measured at 60 mins post dose (reference value: 36.3 +/- 0.8 degC); format: functional
Adenosine receptor A1 [3] = biological target: T1, Adenosine receptor A1 (Homo sapiens, UniProt P30542); test: Agonist activity at human A1A adenosine receptor expressed in CHOKI cells assessed as induction of beta-arrestin2 recruitment after 60 mins; format: cell-based
T1 sequence (P30542 whole entry): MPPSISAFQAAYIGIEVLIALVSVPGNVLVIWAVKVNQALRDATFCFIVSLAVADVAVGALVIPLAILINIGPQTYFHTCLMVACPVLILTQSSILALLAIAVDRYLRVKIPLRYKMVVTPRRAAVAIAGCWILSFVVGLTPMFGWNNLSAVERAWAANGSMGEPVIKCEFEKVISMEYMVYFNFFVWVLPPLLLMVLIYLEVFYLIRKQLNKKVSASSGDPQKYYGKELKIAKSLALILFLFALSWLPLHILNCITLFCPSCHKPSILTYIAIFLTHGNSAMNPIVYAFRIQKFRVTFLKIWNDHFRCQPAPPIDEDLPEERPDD

[4] = biological target: T2, Adenosine receptor A3 (Mus musculus) (UniProt Q61618); test: Displacement of [125I]N6-(4-amino-3-iodobenzyl)adenosine-5-N-methyluronamide from mouse A3A adenosine receptor expressed in CHO cell membranes at 10 uM after 60 mins by scintillation proximity assay relative to adenosine 5-N-ethyluronamide
T2 sequence (whole entry): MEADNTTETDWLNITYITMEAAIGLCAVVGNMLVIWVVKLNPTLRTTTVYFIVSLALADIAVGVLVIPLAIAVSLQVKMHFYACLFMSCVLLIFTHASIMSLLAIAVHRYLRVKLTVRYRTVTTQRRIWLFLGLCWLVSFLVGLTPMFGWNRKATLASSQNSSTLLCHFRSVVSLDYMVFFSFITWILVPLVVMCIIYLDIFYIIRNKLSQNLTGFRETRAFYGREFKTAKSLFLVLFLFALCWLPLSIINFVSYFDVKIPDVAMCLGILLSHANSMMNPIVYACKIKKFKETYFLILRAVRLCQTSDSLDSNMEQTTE

[5] = biological target: T2, Adenosine receptor A3 (Mus musculus); test: Agonist activity at mouse A3AR adenosine receptor at 10 uM after 60 mins by [35S]GTPgammaS binding assay relative to (2S,3S,4R,5R)-5-(6-amino-9H-purin-9-yl)-N-ethyl-3,4-dihydroxytetrahydrofuran-2-carboxamide; format: functional
Mus musculus [6] = species: Mus musculus; test: Selectivity index, ratio of Ki for mouse A3A adenosine receptor to Ki for mouse A1A adenosine receptor expressed in CHO cell membranes after 60 mins by scintillation proximity assay
[7] = biological target: T3, Adenosine receptor A3 (Homo sapiens) (UniProt P0DMS8); test: Displacement of [125I]N6-(4-amino-3-iodobenzyl)adenosine-5-N-methyluronamide from human A3A adenosine receptor expressed in CHO cell membranes at 10 uM after 60 mins by scintillation proximity assay relative to adenosine 5-N-ethyluronamide
T3 sequence (whole entry): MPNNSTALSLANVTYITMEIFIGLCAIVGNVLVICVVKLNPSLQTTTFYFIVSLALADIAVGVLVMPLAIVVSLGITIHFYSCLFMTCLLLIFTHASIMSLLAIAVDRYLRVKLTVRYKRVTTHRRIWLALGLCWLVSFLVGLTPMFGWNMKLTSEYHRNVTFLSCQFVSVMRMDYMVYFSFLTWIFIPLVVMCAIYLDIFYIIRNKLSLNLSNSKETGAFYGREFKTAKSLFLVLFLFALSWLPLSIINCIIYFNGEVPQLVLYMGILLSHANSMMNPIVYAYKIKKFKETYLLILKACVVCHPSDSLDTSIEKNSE

Mus musculus [8] = test: Induction of hypothermia in C57BL/6J mouse assessed as body temperature at 10 mg/kg, ip measured at 60 mins post dose (reference value: 36.3 +/- 0.8 degC); format: functional
Adenosine receptor A2a = Adenosine receptor A2a (Homo sapiens, UniProt P29274); test: Displacement of [3H]2-[p-(2-carboxyethyl)phenylethylamino]-5-N-ethylcarboxamidoadenosine from human A2A adenosine receptor expressed in HEK293 cell membranes at 10 uM after 60 mins by scintillation proximity assay relative to adenosine 5-N-ethyluronamide
Chain of Adenosine receptor A2a (P29274 whole entry): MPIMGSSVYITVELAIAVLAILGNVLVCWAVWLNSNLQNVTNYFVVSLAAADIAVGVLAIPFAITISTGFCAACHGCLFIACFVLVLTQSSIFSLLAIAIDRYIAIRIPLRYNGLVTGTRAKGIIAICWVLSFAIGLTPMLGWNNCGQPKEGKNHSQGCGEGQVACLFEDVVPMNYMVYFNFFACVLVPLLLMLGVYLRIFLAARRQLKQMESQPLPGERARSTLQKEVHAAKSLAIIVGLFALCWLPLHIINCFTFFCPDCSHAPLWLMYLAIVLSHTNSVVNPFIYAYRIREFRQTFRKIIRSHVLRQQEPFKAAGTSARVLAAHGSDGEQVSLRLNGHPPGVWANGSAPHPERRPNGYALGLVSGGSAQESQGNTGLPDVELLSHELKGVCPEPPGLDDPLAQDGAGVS

Adenosine receptor A1 [9] = biological target: T1, Adenosine receptor A1; test: Agonist activity at human A1A adenosine receptor expressed in HEK cells assessed as inhibition of forskolin-stimulated cAMP production after 60 mins; format: functional, cell-based
[10] = Fraction unbound in mouse plasma at 10 uM; format: ADME, cell-free
[11] = Fraction unbound in human plasma at 10 uM; format: ADME, cell-free
[12] = Fraction unbound in rat plasma at 10 uM; format: ADME, cell-free
Adenosine receptor A1 [13] = biological target: T1, Adenosine receptor A1; test: Agonist activity at human A1A adenosine receptor expressed in HEK cell membranes incubated for 60 mins by [35S]GTPgammaS binding assay; format: functional
Mus musculus [14] = test: Induction of hypothermia in C57BL/6J mouse assessed as activity counts at 10 mg/kg, ip measured at 60 mins post dose (reference value: 15.5 +/- 5.5); format: functional
Translocator protein = Translocator protein (Homo sapiens, UniProt P30536); test: Inhibition of TSPO (unknown origin) at 10 uM relative to control
Chain of Translocator protein (P30536 whole entry): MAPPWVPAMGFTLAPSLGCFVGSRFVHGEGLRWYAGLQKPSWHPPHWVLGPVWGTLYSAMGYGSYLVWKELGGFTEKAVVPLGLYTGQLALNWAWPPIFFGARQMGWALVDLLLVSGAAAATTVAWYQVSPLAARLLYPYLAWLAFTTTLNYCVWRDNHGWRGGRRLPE

Chain of Sigma intracellular receptor 2 (Q5BJF2 whole entry): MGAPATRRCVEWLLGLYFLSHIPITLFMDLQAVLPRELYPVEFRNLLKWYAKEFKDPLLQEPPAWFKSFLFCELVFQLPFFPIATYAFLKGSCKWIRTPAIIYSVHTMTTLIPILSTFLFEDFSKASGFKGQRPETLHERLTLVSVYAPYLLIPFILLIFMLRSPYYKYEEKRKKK
Chain of Histamine H1 receptor (P35367 whole entry): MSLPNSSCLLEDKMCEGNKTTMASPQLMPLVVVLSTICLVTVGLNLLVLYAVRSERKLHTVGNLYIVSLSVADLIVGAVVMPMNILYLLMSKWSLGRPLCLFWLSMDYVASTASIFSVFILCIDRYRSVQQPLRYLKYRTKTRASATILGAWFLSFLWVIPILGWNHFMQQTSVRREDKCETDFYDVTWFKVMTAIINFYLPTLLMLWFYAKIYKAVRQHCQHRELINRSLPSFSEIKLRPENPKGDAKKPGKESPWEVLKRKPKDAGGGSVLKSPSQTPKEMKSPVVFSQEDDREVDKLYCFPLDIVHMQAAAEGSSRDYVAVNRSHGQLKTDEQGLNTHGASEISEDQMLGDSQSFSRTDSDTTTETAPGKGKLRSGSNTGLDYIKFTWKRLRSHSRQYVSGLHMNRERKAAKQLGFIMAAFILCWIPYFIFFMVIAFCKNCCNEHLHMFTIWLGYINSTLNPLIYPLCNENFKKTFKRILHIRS

Compound `Nc1ncnc2c1ncn2[C@@H]1O[C@H](C(=O)NC2CC2)[C@@H](O)[C@H]1O` has a Ki (Histamine H1 receptor) of 7.88 µM and a Ki [1] of 4.35 µM.
For `OC[C@H]1O[C@@H](n2cnc3c(NC4CCCC4)ncnc32)[C@H](O)[C@@H]1O` [N6-CYCLOPENTYLADENOSINE], the T (Mus musculus [2]) was 32.4 °C.
Compound `NC(=O)c1ncn([C@H]2[C@H](O)[C@H](O)[C@]3(CO)C[C@H]23)n1` has an EC50 (Adenosine receptor A1 [3]) of 2.46 µM, a Ki [1] of 2.09 µM and an inhibition [4] of 47%. For the same compound, the Emax [5] was 31%, the Ratio Ki (Mus musculus [6]) was 400 and the inhibition [7] was 41%. It also gave a T (Mus musculus [8]) of 35.7 °C, an inhibition (Adenosine receptor A2a) of 11% and an IC50 (Adenosine receptor A1 [9]) of 0.087 µM. It also gave a Fu [10] of over 80%, a Fu [11] of over 80% and a Fu [12] of over 80%. For the same compound, the EC50 (Adenosine receptor A1 [13]) was 0.758 µM and the Activity (Mus musculus [14]) was 19.1.
For `CCSC[C@H]1O[C@@H](n2cnc3c(NC(C4CCC4)C4CCC4)ncnc32)[C@H](O)[C@@H]1O`, the Ki [1] was 0.642 µM, the inhibition (Adenosine receptor A2a) was 30% and the inhibition (Translocator protein) was 90%.
